Reference: patent US20220326244A1, “METHODS FOR DIAGNOSIS, PROGNOSIS, AND TREATMENT OF CANCER” (The Boardof Trustees of the Leland Stanford Junort …, priority 2019, published 2022)

Legend:
NK-92 cells = experiment: PMA-stimulated degranulation and intracellular cytokine production of NK-92 cells (CyTOF); type: cell-based, human; details: mono- and coculture; PMA 4 h exposure
Text: Intracellular cytokine production of CD9+ and CD9− NK-92 cells. One of the mechanisms by which dNK cells exert immune tolerance is through poor cytotoxic responses and secretion of a specific set of cytokines. Thus, we hypothesized that trogocytosis and the acquisition of CD9 by NK-92 cells endows them with features of immune tolerance. Therefore, we measured the intracellular expression levels of cytolytic proteins (perforin and granzyme B), anti-tumor cytokines ([…], TNFα, GM-CSF, IFNγ), the proangiogenic cytokine IL-8, the immunosuppressive cytokine IL-10, and CD107a, a marker for degranulation in both CD9+ and CD9− NK-92 cells after coculture with HGSC cells lines. Specifically, we measured NK-92 cell function before and after coculture in response to phorbol-12-myristate-13-acetate (PMA). Exposing cocultures to PMA circumvents upstream NK receptor signaling and is a convenient method for measuring NK cell function. In a pilot study, we determined that a coculture time of 6 h produced the most robust intracellular cytokine production (ICP). Therefore, NK-92 and HGSC cell lines were cocultured for 6 h in the presence of PMA (4 h exposure) with brefeldin A and monensin added to block secretion (Materials and Methods). For all experiments, we used two positive controls. […]

[1] = test system: NK-92 cells cocultured with OVCAR4, Kuramochi and TYK-nu HGSC tumor cell lines; experiment: Trogocytosis inhibition: CD9 acquisition by NK-92 cells in coculture with HGSC cell lines; type: cell-based, human
Experimental: To further confirm that the mechanism of CD9 acquisition by NK-92 cells was through trogocytosis we performed an additional series of experiments. Many studies have shown that inhibitors of actin polymerization block trogocytosis but that the effect of these inhibitors vary depending on the cell type.
(§1) Trogocytosis inhibition. NK-92 cells were pre-treated with cytochalasin D (10 μM in complete media) for 2 h. They were then co-cultured with cancer cell lines as indicated in a ratio of 1:1 in the continuous presence of cytochalasin D for a further 2 h after which cells were stained with antibodies against CD9, CD45 and processed prior to CyTOF analysis as described above.

[2] = test system: NK-92 cells cocultured with non-HGSC tumor cell lines; experiment: Trogocytosis inhibition: CD9 uptake by NK-92 cells in coculture with non-HGSC cell lines; type: cell-based, human
Text: Evaluation of NK-92 trogocyctosis from non-HGSC cell lines. In order to determine whether NK-92 CD9 trogocytosis was a feature of non-HGSC tumor cells, we established the frequency of CD9-expressing cells in 15 non-HGSC as well as 11 HGSC tumor cell lines (FIG. 6A). The frequency and levels of CD9-expressing tumor cells varied across the cell lines and are presented going from highest to lowest CD9 levels (FIGS. 6A and B). […] We therefore chose three non-HGSC tumor cell lines with high CD9 expression (HCT116, A431 and MCF7) and three with lower CD9 expression (HeLa, CaCo-2 and HepG2) for trogocytosis experiments (FIG. 6B). NK-92 trogocytosis from non-HGSC cell lines was highly varied, not correlated to CD9 levels and, aside from the HCT116 colorectal cancer cell line, less pronounced than from the HGSC cell lines (FIGS. 5C and 6C).
as §1

Kuramochi (EV) cell line = experiment: Carboplatin exposure of HGSC cell line, CyTOF with tumor NK receptor ligand/ADAM antibody panel; type: cell-based; details: for frequency of cells expressing nectin 4: baseline 15%
Experimental: (§2) FIG. 4. Responses to carboplatin across E, EV and V HGSC cell lines. OVCAR4 (E), Kuramochi (EV) and TYK-nu (V) cell lines exposed to vehicle or carboplatin at 0.5 or 1 μg/ml for 1 week were processed for CyTOF with the tumor NK receptor ligand/ADAM antibody panel. The parent population is defined as viable single cells negative for cisplatin and cPARP. The plots show frequencies of HGSC cells expressing activating and inhibitor NK receptor ligands (X-axis) gated out of the parent population (Y-axis). Plots show the mean of triplicates with standard deviations. p-values: *≤0.05, **≤0.005, for overall ANOVA.
(§3) Changes in NK receptor ligand expression levels in response to carboplatin. It is well established that activation of the DNA damage response with genotoxic agents increases the expression of ligands for NKG2D and DNAM1 thereby making a “stressed” cell more susceptible to NK cell killing. We therefore exposed the three HGSC cell lines to carboplatin, a genotoxic agent that is part of the standard-of-care regimen for women with HGSC. After one week, the HGSC cell lines were processed for CyTOF using the tumor/NK receptor ligand antibody panel (Table 12).
(§4) Sample Processing and Antibody Staining for CyTOF. Frozen, fixed single-cell suspensions of HGSC tumors or cell lines were thawed at room temperature. For each sample, 1×10^6 cells were aliquoted into cluster tubes in 96 well plates and subjected to pre-permeabilization palladium barcoding. After barcoding, pooled cells were pelleted and incubated for 10 min at room temperature with FcX block (Biolegend) to block non-specific antibody binding. Cells were then incubated with antibodies against surface markers for 45 min at room temperature. Cells were permeabilized at 4° C. with methanol or 1× Permeabilization Buffer (eBioscience) (only for the CyTOF antibody panel designed to characterize intracellular cytokines, on ice for 10 min. Cells were subsequently stained with antibodies against intracellular markers for 1 h at room temperature, washed, and incubated with the ^191/193Ir DNA intercalator (Fluidigm) at 4° C. overnight. Cells were washed and resuspended in a solution of normalization beads before introduction into the CyTOF 2.

OVCAR4 (E) cell line = experiment: as above; type: cell-based; details: for frequency of cells expressing nectin 4: OVCAR4, 1 week
Experimental: as §2, §3, §4

TYK-nu (V) cell line = experiment: as above; type: cell-based; details: for frequency of cells expressing nectin 4: baseline 6%
Experimental: as §2, §3, §4

[3] = test system: HGSC cell lines (OVCAR4, Kuramochi, TYK-nu); experiment: Carboplatin exposure of the three HGSC cell lines, CyTOF (stated for all lines together); type: cell-based
Experimental: as §2, §3
Sample Processing and Antibody Staining for CyTOF. Frozen, fixed single-cell suspensions of HGSC tumors or cell lines were thawed at room temperature. […]

Structure (SMILES): CCCCCCCCCCCCCC(=O)O[C@@H]1[C@@H](C)[C@@]2(O)[C@@H](C=C(CO)C[C@]3(O)C(=O)C(C)=C[C@@H]23)[C@@H]2C(C)(C)[C@]12OC(C)=O [PMA, phorbol-12-myristate-13-acetate]
- NK-92 cell degranulation (CD107a) and production of MIP1a (NK-92 cells): robust responses

Structure (SMILES): C=C1[C@@H](C)[C@H]2[C@H](Cc3ccccc3)NC(=O)[C@]23[C@H](OC(C)=O)/C=C/[C@@](C)(O)C(=O)[C@@H](C)C/C=C/[C@H]3[C@@H]1O [cytochalasin D]
- reduction of CD9+ NK-92 cells ([1]; NK-92 pre-incubated 2 h with cytochalasin D, coculture in its presence with OVCAR4, Kuramochi and TYK-nu): 40-69%
- inhibition of trogocytosis (HGSC cell line coculture) ([1]; pre-incubation of NK-92 cells with cytochalasin D (10 μM)): partial inhibition
- CD9 uptake in NK-92 ([2]; non-HGSC cell lines, most marked for HCT116, MCF7 and CaCo2): partially inhibited
- inhibition of trogocytosis (non-HGSC cell coculture) ([2]; preincubation of NK-92 cells with cytochalasin D (10 μM)): partial inhibition

Structure (SMILES): N.N.O=C([O-])C1(C(=O)[O-])CCC1.[Pt+2] [carboplatin]
- frequency of cells expressing HLA-E (Kuramochi (EV) cell line; Kuramochi, after carboplatin 1 week): significant increases
- frequency of cells expressing nectin 4 (Kuramochi (EV) cell line; Kuramochi, first listed of two carboplatin doses): 22%
- frequency of cells expressing nectin 4 (Kuramochi (EV) cell line; Kuramochi, second listed of two carboplatin doses): 23%
- frequency of Kuramochi cells expressing HLA-ABC (Kuramochi (EV) cell line; after carboplatin 1 week): significant increase
- frequency of cells expressing HLA-E (OVCAR4 (E) cell line; OVCAR4, after carboplatin 1 week): significant increases
- frequency of cells expressing nectin 4 (OVCAR4 (E) cell line; first listed of two carboplatin doses (0.5 or 1 μg/ml), baseline 24%): 39%
- frequency of cells expressing nectin 4 (OVCAR4 (E) cell line; second listed of two carboplatin doses (0.5 or 1 μg/ml), baseline 24%): 45%
- frequency of OVCAR4 cells expressing ULBP2 (OVCAR4 (E) cell line; after carboplatin (0.5 or 1 μg/ml, 1 week), baseline 24%): 50%
- frequency of cells expressing HLA-E (TYK-nu (V) cell line; TYK-nu, after carboplatin 1 week): significant increases
- frequency of cells expressing nectin 4 (TYK-nu (V) cell line; TYK-nu, first listed of two carboplatin doses): 9%
- frequency of cells expressing nectin 4 (TYK-nu (V) cell line; TYK-nu, second listed of two carboplatin doses): 9%
- CD111 in TYK-nu cells (TYK-nu (V) cell line; after carboplatin 1 week): significant increase
- proportion of HGSC tumor cells that expressed NK inhibitory receptor ligands ([3]; all three cell lines, after carboplatin): increased
- DNA damage response: pH2AX ([3]; carboplatin 0.5 or 1 μg/ml for 1 week): increase
